Test results taken from patent publication US12295959B2 (priority 2021, dated 2025).

What was measured:
[1] = target: T1, 5-HT2C edited (accession number AAF35842.1) (Homo sapiens, UniProt P28335, I156V/I160V/N158S); experiment: cell-based
Target sequence in this assay (P28335 whole entry I156V/N158S/I160V, looked up): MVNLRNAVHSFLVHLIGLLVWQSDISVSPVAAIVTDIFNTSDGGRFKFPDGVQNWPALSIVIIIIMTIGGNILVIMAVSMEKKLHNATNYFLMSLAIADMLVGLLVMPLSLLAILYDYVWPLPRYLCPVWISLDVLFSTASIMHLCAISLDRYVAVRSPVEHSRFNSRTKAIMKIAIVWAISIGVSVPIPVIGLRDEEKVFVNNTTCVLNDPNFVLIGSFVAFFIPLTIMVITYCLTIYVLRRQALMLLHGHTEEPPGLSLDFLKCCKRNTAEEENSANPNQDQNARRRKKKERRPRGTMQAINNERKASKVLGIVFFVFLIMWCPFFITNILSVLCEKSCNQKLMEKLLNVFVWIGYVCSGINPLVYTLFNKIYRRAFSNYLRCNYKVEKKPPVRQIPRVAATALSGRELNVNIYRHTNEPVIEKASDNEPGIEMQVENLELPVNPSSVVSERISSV

5-HT2C = 5-HT2C (Homo sapiens, UniProt P28335, I156V/I160V/N158S); experiment: cell-based
[2] = target: T1, 5-HT2C edited (accession number AAF35842.1); experiment: biochemical; assay type: binding
Target sequence in this assay (P28335 33-458 I156V/N158S/I160V limits assumed): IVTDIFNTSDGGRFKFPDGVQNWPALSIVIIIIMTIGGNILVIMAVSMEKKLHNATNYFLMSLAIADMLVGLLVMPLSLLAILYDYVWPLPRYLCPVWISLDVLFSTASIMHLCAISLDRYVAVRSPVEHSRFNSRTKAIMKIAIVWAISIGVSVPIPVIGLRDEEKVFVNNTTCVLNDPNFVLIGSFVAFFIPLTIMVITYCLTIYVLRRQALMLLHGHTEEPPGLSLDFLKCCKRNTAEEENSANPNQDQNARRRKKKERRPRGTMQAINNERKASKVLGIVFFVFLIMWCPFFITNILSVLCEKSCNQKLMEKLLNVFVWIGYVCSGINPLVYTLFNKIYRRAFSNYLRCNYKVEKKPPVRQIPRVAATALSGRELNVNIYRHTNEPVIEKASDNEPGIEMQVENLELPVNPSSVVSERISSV

Chain of 5-HT2C (P28335 33-458 I156V/N158S/I160V limits assumed): as above

Row | Structure (SMILES) | EC50 [1] [nM] | IC50 (5-HT2C) [nM] | IC50 [2] [nM]
1 | CN1CCc2[nH]c3cccc(OCc4ccccc4)c3c2CC1 [Compound 2, 10-(benzyloxy)-3-methyl-1,2,3,4,5,6-hexahydroazepino[4,5-b]indole] | 10 to 100 | 10 to 100 | < 10
2 | c1ccc(Oc2ccc3c4c([nH]c3c2)CCNCC4)cc1 [Compound 11, 8-phenoxy-1,2,3,4,5,6-hexahydroazepino[4,5-b]indole] | 101 to 1000 | > 10000 | 101 to 1000
3 | Cn1c2c(c3ccc(Oc4ccccc4)cc31)CCNCC2 [Compound 13, 6-methyl-8-phenoxy-1,2,3,4,5,6-hexahydroazepino[4,5-b]indole] | 1000 to 10000 | – | 101 to 1000
4 | c1ccc(Oc2cccc3[nH]c4c(c23)CCNCC4)cc1 [Compound 20, 10-phenoxy-1,2,3,4,5,6-hexahydroazepino[4,5-b]indole] | < 10 | – | < 10
5 | CN1CCc2[nH]c3c(OCc4ccccc4)cccc3c2CC1 [Compound 28, 7-(benzyloxy)-3-methyl-1,2,3,4,5,6-hexahydroazepino[4,5-b]indole] | 101 to 1000 | 101 to 1000 | 101 to 1000
6 | CN1CCc2[nH]c3cc(OCc4ccc(F)cc4)ccc3c2CC1 [Compound 8, 8-((4-fluorobenzyl)oxy)-3-methyl-1,2,3,4,5,6-hexahydroazepino[4,5-b]indole] | 1000 to 10000 | 1000 to 10000 | 101 to 1000
7 | Fc1ccc(COc2ccc3c4c([nH]c3c2)CCNCC4)cc1 [Compound 7, 8-((4-fluorobenzyl)oxy)~1,2,3,4,5,6-hexahydroazepino[4,5-b]indole] | 101 to 1000 | > 10000 | 101 to 1000
8 | c1ccc(COc2cccc3[nH]c4c(c23)CCNCC4)cc1 [Compound 4, 10-(benzyloxy)-1,2,3,4,5,6-hexahydroazepino[4,5-b]indole] | < 10 | – | < 10
9 | CN1CCc2[nH]c3cccc(Oc4ccc(F)cc4)c3c2CC1 [Compound 22, 10-(4-fluorophenoxy)-3-methyl-1,2,3,4,5,6-hexahydroazepino[4,5-b]indole] | < 10 | > 10000 | 10 to 100
10 | Cn1c2c(c3c(Oc4ccc(F)cc4)cccc31)CCNCC2 [Compound 23, 10-(4-fluorophenoxy)-6-methyl-1,2,3,4,5,6-hexahydroazepino[4,5-b]indole] | 101 to 1000 | – | 10 to 100
11 | CN1CCc2c(n(C)c3cc(OCc4ccc(F)cc4)ccc23)CC1 [Compound 10, 8-((4-fluorobenzyl)oxy)-3,6-dimethyl-1,2,3,4,5,6-hexahydroazepino[4,5-b]indole] | 1000 to 10000 | 1000 to 10000 | 101 to 1000
12 | Cn1c2c(c3ccc(OCc4ccccc4)cc31)CCNCC2 [Compound 5, 8-(benzyloxy)-6-methyl-1,2,3,4,5,6-hexahydroazepino[4,5-b]indole] | 1000 to 10000 | > 10000 | 101 to 1000
13 | c1ccc(COc2ccc3[nH]c4c(c3c2)CCNCC4)cc1 [Compound 25, 9-(benzyloxy)-1,2,3,4,5,6-hexahydroazepino[4,5-b]indole] | 10 to 100 | > 10000 | 10 to 100
14 | CN1CCc2[nH]c3cc(Oc4ccc(F)cc4)ccc3c2CC1 [Compound 16, 8-(4-fluorophenoxy)-3-methyl-1,2,3,4,5,6-hexahydroazepino[4,5-b]indole] | 1000 to 10000 | > 10000 | 101 to 1000
15 | c1ccc(COc2cccc3c4c([nH]c23)CCNCC4)cc1 [Compound 27, 7-(benzyloxy)-1,2,3,4,5,6-hexahydroazepino[4,5-b]indole] | 101 to 1000 | – | 101 to 1000
16 | CN1CCc2c(n(C)c3cccc(Oc4ccc(F)cc4)c23)CC1 [Compound 24, 10-(4-fluorophenoxy)-3,6-dimethyl-1,2,3,4,5,6-hexahydroazepino[4,5-b]indole] | 101 to 1000 | 10 to 100 | 10 to 100
17 | CN1CCc2c(n(C)c3cc(Oc4ccc(F)cc4)ccc23)CC1 [Compound 18, 8-(4-fluorophenoxy)-3,6-dimethyl-1,2,3,4,5,6-hexahydroazepino[4,5-b]indole] | 101 to 1000 | 1000 to 10000 | 101 to 1000
18 | CN1CCc2[nH]c3ccc(OCc4ccccc4)cc3c2CC1 [Compound 26, 9-(benzyloxy)-3-methyl-1,2,3,4,5,6-hexahydroazepino[4,5-b]indole] | 101 to 1000 | 101 to 1000 | 101 to 1000
19 | Fc1ccc(Oc2cccc3[nH]c4c(c23)CCNCC4)cc1 [Compound 21, 10-(4-fluorophenoxy)-1,2,3,4,5,6-hexahydroazepino[4,5-b]indole] | < 10 | – | < 10
20 | CN1CCc2[nH]c3cc(OCc4ccccc4)ccc3c2CC1 [Compound 1, 8-(benzyloxy)-3-methyl-1,2,3,4,5,6-hexahydroazepino[4,5-b]indole] | 1000 to 10000 | – | 101 to 1000
21 | CN1CCc2[nH]c3c(Br)ccc(OCc4ccccc4)c3c2CC1 [Compound 29, 10-(benzyloxy)-7-bromo-3-methyl-1,2,3,4,5,6-hexahydroazepino[4,5-b]indole] | > 10000 | 10 to 100 | < 10
22 | Cn1c2c(c3c(OCc4ccccc4)cccc31)CCNCC2 [Compound 19, 10-(benzyloxy)-6-methyl-1,2,3,4,5,6-hexahydroazepino[4,5-b]indole] | 10 to 100 | – | 10 to 100
23 | c1ccc(COc2ccc3c4c([nH]c3c2)CCNCC4)cc1 [Compound 3, 8-(benzyloxy)-1,2,3,4,5,6-hexahydroazepino[4,5-b]indole] | 101 to 1000 | – | 101 to 1000
24 | CN1CCc2c(n(C)c3cc(Oc4ccccc4)ccc23)CC1 [Compound 14, 3,6-dimethyl-8-phenoxy-1,2,3,4,5,6-hexahydroazepino[4,5-b]indole] | 101 to 1000 | > 10000 | 101 to 1000
25 | Fc1ccc(Oc2ccc3c4c([nH]c3c2)CCNCC4)cc1 [Compound 15, 8-(4-fluorophenoxy)-1,2,3,4,5,6-hexahydroazepino[4,5-b]indole] | 101 to 1000 | – | 101 to 1000
26 | Cn1c2c(c3ccc(Oc4ccc(F)cc4)cc31)CCNCC2 [Compound 17, 8-(4-fluorophenoxy)-6-methyl-1,2,3,4,5,6-hexahydroazepino[4,5-b]indole] | 1000 to 10000 | – | 10 to 100
27 | Cn1c2c(c3ccc(OCc4ccc(F)cc4)cc31)CCNCC2 [Compound 9, 8-((4-fluorobenzyl)oxy)-6-methyl-1,2,3,4,5,6-hexahydroazepino[4,5-b]indole] | 1000 to 10000 | – | 101 to 1000
28 | CN1CCc2[nH]c3cc(Oc4ccccc4)ccc3c2CC1 [Compound 12, 3-methyl-8-phenoxy-1,2,3,4,5,6-hexahydroazepino[4,5-b]indole] | 1000 to 10000 | > 10000 | 101 to 1000
29 | CN1CCc2c(n(C)c3cc(OCc4ccccc4)ccc23)CC1 [Compound 6, 8-(benzyloxy)-3,6-dimethyl-1,2,3,4,5,6-hexahydroazepino[4,5-b]indole] | 1000 to 10000 | – | 101 to 1000
